“And” between values parts separate entries of the source, which are not always exact repeats. Equal values may be shown once.
B1: E06-scFv: single chain variable antibody fragment of E06 (heavy and light variable regions joined by 15-amino acid linker), expressed in transgenic mice (protein)
scFv: DAAQPARRAVRSLDIVMTQSPSSLSVSAGKKVTISCTASESLYSSKHKVHYLAWYQKKPEQSPKLLIYGASNRYIGVPDRFTGSGSGTDFTLTISSVQVEDLTHYYCAQFYSYPLTFGAGTKLEIKGGGGSGGGGSGGGGSEVKLVESGGGLVQPGGSLRLSCATSGFTFSDFYMEWVRQAPGKRLEWIAASRNKANDYTTEYADSVKGRFIVSRDTSQSILYLQMNALRAEDTAIYYCARDYYGSSYWYFDVWGAGTTVTVSSRGGPEQKLISEEDLNSAVD

How the values were obtained:
[1] = tested on: neonatal rat cardiomyocytes (NNCM); experiment: Neutralization of OxPL by E06: OxPL-induced cardiomyocyte cell death with E06 co-treatment; type: cell-based; settings: 5 μM lipid alone, 2 hrs
From the text: Cell culture of rat cardiomyocytes. All animal experiments performed conform to the NIH guidelines regarding animal experimentation. Neonatal rat cardiomyocytes (NNCM) were isolated from 1-2 day old Sprague-Dawley rat pups. Whole hearts were excised from rat pups by midline sternotomy after cervical dislocation. Hearts were washed and minced to adequately break up macroscopic structures before re-washing with cold filter sterilized phosphate buffered saline (PBS) containing 10 g/L of glucose to remove red blood cells and debris. Repeated enzymatic digestion of heart fragments was performed with collagenase (740U), trypsin (370U), and DNase (2880U) (Worthington Biochemical) agitating at 35° C. for three 10-minute and three 7-minute digestions. Digested supernatant solutions were centrifuged into a cell pellet and then separation of cell types using a Percoll® (GE Healthcare) gradient of 1.05, 1.06, and 1.082 g/mL allowed for a layer enriched with myocytes to be isolated. To remove fibroblasts, the cells were pre-plated on non-coated 150 mm culture plates for 45 min. Purified NNCM (95% pure by sarcomere staining) were then transferred to sterile tissue culture plates at a cell density of 1.75×10^6/35-mm plate. Collagen-coated glass coverslips in 24-well tissue culture plates were used for microscopy analysis and NNCM were plated at 3.2×10^5/well. […]
In vitro OxPC treatment and assessment of cell viability. […] Plates were then washed with PBS before NNCM were analyzed for cell viability using vital dyes, calcein-acetoxymethyl ester (AM) and ethidium homodimer-1 (Invitrogen). Mitochondrial permeability after exposure to OxPL molecules was monitored by fluorescence microscopy using a solution of calcein-AM fluorescent dye with cobalt chloride (CoCl2) applied to cardiomyocytes cultured on glass coverslips.
To evaluate the effect of neutralizing OxPL on cell viability, the IgM E06 antibody was used at a concentration of 10 μg/mL within cell culture. […] Cell viability was assessed as described above. […] Images were assessed using Adobe Photoshop CS5.1 Software.

[2] = tested on: neonatal rat cardiomyocytes (NNCM); experiment: In vitro OxPC treatment and assessment of cell viability (calcein-AM / ethidium homodimer-1); type: cell-based; settings: 4 hours
From the text: Cell culture of rat cardiomyocytes. All animal experiments performed conform to the NIH guidelines regarding animal experimentation. Neonatal rat cardiomyocytes (NNCM) were isolated from 1-2 day old Sprague-Dawley rat pups. Whole hearts were excised from rat pups by midline sternotomy after cervical dislocation. Hearts were washed and minced to adequately break up macroscopic structures before re-washing with cold filter sterilized phosphate buffered saline (PBS) containing 10 g/L of glucose to remove red blood cells and debris. Repeated enzymatic digestion of heart fragments was performed with collagenase (740U), trypsin (370U), and DNase (2880U) (Worthington Biochemical) agitating at 35° C. for three 10-minute and three 7-minute digestions. Digested supernatant solutions were centrifuged into a cell pellet and then separation of cell types using a Percoll® (GE Healthcare) gradient of 1.05, 1.06, and 1.082 g/mL allowed for a layer enriched with myocytes to be isolated. To remove fibroblasts, the cells were pre-plated on non-coated 150 mm culture plates for 45 min. Purified NNCM (95% pure by sarcomere staining) were then transferred to sterile tissue culture plates at a cell density of 1.75×10^6/35-mm plate. Collagen-coated glass coverslips in 24-well tissue culture plates were used for microscopy analysis and NNCM were plated at 3.2×10^5/well. Cells were incubated overnight in Dulbecco's Modified Eagle Medium/Ham's nutrient mixture F-12 (1:1) containing 2 mM glutamine, 3 mM NaHCO3, 15 mM HEPES, and […] gentamycin (DMEM/F12) plus 10% fetal bovine serum (FBS). DMEM/F12 with 10% FBS was changed to serum-free DMEM/F12 (DFSF) the following day. Control solution consisted of 140 mM NaCl, 6 mM KCl, 1.25 mM CaCl2, 6 mM HEPES, and 10 mM D-glucose buffered to pH 7.4, ischemic solution was buffered to pH 6.0, and consisted of the same components, except 8 mM KCl was added and no D-glucose was added. The ischemic buffer was purged of oxygen by bubbling 95% N2 and 5% CO2 gas into the medium for 1 hour before being applied to cells. A hypoxic chamber designed for storage in a 37° C. water jacketed tissue culture incubator was used to maintain an atmosphere of 95% N2 and 5% CO2 gas conditions for 18 hours overnight. Reperfusion was achieved by applying control buffer to cells for 4 hours in a normal culture incubator. After the treatment, cells were scraped off into a small portion of PBS. Cardiomyocyte cell lysates were subjected to Western Blot analysis.
In vitro OxPC treatment and assessment of cell viability. Fresh DFSF was applied to NNCM on glass cover-slips and supplemented with 1, 2, 5, and 10 μM concentrations of OxPL lipids sonicated into PBS, forming micelles. Four OxPL species, POVPC, PONPC, PGPC, and PAzPC were applied to NNCM plates for 4 hours and compared to a non-oxidized PC standard PSPC. Plates were then washed with PBS before NNCM were analyzed for cell viability using vital dyes, calcein-acetoxymethyl ester (AM) and ethidium homodimer-1 (Invitrogen). Mitochondrial permeability after exposure to OxPL molecules was monitored by fluorescence microscopy using a solution of calcein-AM fluorescent dye with cobalt chloride (CoCl2) applied to cardiomyocytes cultured on glass coverslips.

E06-scFv-Tg/Ldlr−/− mice = experiment: Myocardial ischemia-reperfusion (LAD ligation), histologic infarct size in E06-scFv-Tg/Ldlr−/− mice; type: in vivo, mouse
From the text: (§1) Generation and characterization of E06-scFv transgenic mice. The generation of transgenic C57BL/6 mice expressing the T15/E06 idiotype as a single chain variable antibody fragment—termed E06-scFv-Tg. In brief, the cDNAs encoding E06 variable regions of the heavy and light chains were linked with a 15-amino acid peptide by overlapping PCR, and cloned into an expression vector pSecTag2A (Invitrogen) containing a murine Ig kappa-chain leader sequence for secretion and c-myc and polyHis as epitope tags. […] The same construct was then cloned into the liver-specific expression vector pLiv7 and used to generate transgenic (Tg) mice in the C57BL/6 background expressing the E06-scFv transgene driven by the apoE promoter. Offspring were screened both for plasma E06-scFv titer and integration of the transgene by PCR amplification of the tail DNA. The transgenic E06-scFv founder lines were bred with each other to generate “homozygous” transgenic mice, and in turn, these were crossed into Ldl^−/− mice on the C57BL/6 background. All animals were genotyped for E06-scFv and Ldlr^−/−, respectively and plasma assayed to confirm expression of the E06-scFv by immunoassay. The E06-scFv mRNA was strongly expressed in liver, peritoneal macrophages and spleen, and to a lesser extent in heart. Plasma levels of the E06-scFv averaged 20-30 μg/ml in these studies.
Adult (18-20-week-old) E06-scFv-Tg/Ldlr^−/− mice or Ldlr^−/− mice weighing 16-40 grams, were anesthetized with a mixture of Ketamine (50 mg/kg) and Xylazine (5 mg/kg) and 1.0% isoflurane. Mice were intubated with a pressure ventilator (Kent Scientific, PhysioSuite. Peak inspiration pressure was ˜13 cm H2O and inspiration rate 100-110. The skin over the mid thorax was shaved and cleansed with Betadine or Chlorhexidine solution. A skin incision was made from the midsternal line toward the left armpit, and the chest opened with a 1 cm lateral cut along the left side of the sternum, cutting between the 3rd and 4th ribs to expose the left ventricle of the heart. The ascending aorta and main pulmonary artery were identified; the left anterior descending (LAD) coronary artery was located as it traverses the anterior wall of the heart, between the left and right ventricles. LAD coronary artery occlusion was performed by tying an 8-0 prolene suture ligature on a piece of 2-0 silk suture. Occlusion of the artery was assessed by blanching of the territory of perfusion of the LAD coronary artery, along with acute ST segment elevation on limb-lead electrocardiographic leads. Following an ischemic period of 60 minutes, the suture was removed from around the LAD coronary artery. […]
Histologic assessment of infarct size. […] The sizes of AAR and infarct area (IA) were quantified by computerized planimetry using ImageJ. […]

[3] = Binding properties of E06-scFv secreted into HEK293 culture supernatant; settings: E06-scFv in HEK293 culture supernatant
From the text: as §1

[4] = Plasma levels of E06-scFv in transgenic mice (immunoassay); type: in vivo, mouse; settings: transgenic mice constitutively expressing E06-scFv (apoE promoter)
From the text: as §1

[5] = E06-scFv-Tg/Ldlr−/− mice, 7 days after 60 minutes LAD ischemia and reperfusion
[6] = E06-scFv-Tg/Ldlr−/− vs Ldlr−/− mice, 7 days after IR

Molecule | cell death without E06 [1] | cell death ([2]; 1 μM lipid) | cell death ([2]; 2 μM lipid) | cell death ([2]; 5 μM lipid) | cell death ([2]; 10 μM lipid) | IA/AAR (infarct area as percentage of area at risk) (E06-scFv-Tg/Ldlr−/− mice; [5]) | IA/LV (infarct area as percentage of left ventricle) (E06-scFv-Tg/Ldlr−/− mice; [5]) | smaller IA/AAR compared to Ldlr−/− mice (E06-scFv-Tg/Ldlr−/− mice; [6]) | smaller IA/LV compared to Ldlr−/− mice (E06-scFv-Tg/Ldlr−/− mice; [6]) | binding properties compared with intact E06 [3] | plasma levels of E06-scFv [4]
CCCCCCCCCCCCCCCC(=O)OC[C@H](COP(=O)([O-])OCC[N+](C)(C)C)OC(=O)CCCCCCCC=O [PONPC, 1-palmitoyl-2-(9-oxo)nonanoyl-sn-glycero-3-phosphocholine] | 25.3±3.4% | 28.3±8.9% | 42.0±6.2% | 70.0±18.6% |  |  |  |  |  |  | 
CCCCCCCCCCCCCCCC(=O)OC[C@H](COP(=O)([O-])OCC[N+](C)(C)C)OC(=O)CCCC=O [POVPC, 1-palmitoyl-2-(5-oxovaleroyl)-sn-glycero-3-phosphocholine] | 22.6±4.14% |  |  |  | 68.6±14.8% |  |  |  |  |  | 
CCCCCCCCCCCCCCCCCC(=O)O[C@H](COC(=O)CCCCCCCCCCCCCCC)COP(=O)([O-])OCC[N+](C)(C)C [PSPC] | 6.2±1.6% | 7.6±5.1% | 9.1±10.5% | 10.5±1.6% | 5.5±1.6% |  |  |  |  |  | 
B1 |  |  |  |  |  | 47.7±17.6% | 16.3±7.5% | 65.9% | 58.8% and 58.5% | mimic those of the intact E06 | 20000 to 30000 ng/mL

Source: patent US11897969B2, “Inhibition of oxidation-specific epitopes to treat ischemic reperfusion injury” (The Regents of the University of California, priority 2017, dated 2024)
